≈ marks a conversion by molar mass, not a printed value.
What was measured:
SK-OV-3 = assay: Cytotoxicity against human SKOV3 cells assessed as cell growth inhibition after 48 hrs by SRB assay; format: functional, cell-based; settings: SK-OV-3, 48 h
HCT-15 = assay: Cytotoxicity against human HCT15 cells assessed as cell growth inhibition after 48 hrs by SRB assay; format: functional, cell-based; settings: HCT-15, 48 h
BV-2 = assay: Inhibition of LPS-induced nitric oxide production in mouse BV2 cells treated for 30 mins prior to LPS stimulation for 24 hrs by Griess assay; format: functional, cell-based
[1] = Antioxidant activity assessed as DPPH radical scavenging activity after 10 mins by spectrophotomteric analysis; format: physicochemical
[2] = Cytotoxicity against mouse BV2 cells assessed as inhibition of cell viability up to 50 uM by MTT assay; format: cell-based; settings: bv-2
SK-MEL-2 = assay: Cytotoxicity against human SK-MEL-2 cells assessed as cell growth inhibition after 48 hrs by SRB assay; format: functional, cell-based; settings: SK-MEL-2, 48 h
A549 = assay: Cytotoxicity against human A549 cells assessed as cell growth inhibition after 48 hrs by SRB assay; format: functional, cell-based; settings: A549, 48 h
RAW264.7 = assay: Inhibition of LPS-induced nitric oxide production in mouse RAW264.7 cells at 100 uM; format: functional
[3] = Cytotoxicity against mouse BV2 cells assessed as inhibition of cell viability by MTT assay; format: cell-based, BV-2; settings: read-out: INH

Compound | IC50 (SK-OV-3) [µM] | IC50 (HCT-15) [µM] | IC50 (BV-2) [µM] | IC50 [1] | Activity [2] | IC50 (SK-MEL-2) [µM] | IC50 (A549) [µM] | inhibition at 100 µM (RAW264.7) [%] | cytotoxicity [3] [%]
COc1cc(/C=C/C(=O)OC[C@H]2O[C@H](O[C@]3(CO)O[C@H](CO)[C@@H](O)[C@@H]3OC(=O)/C=C/c3ccc(O)c(OC)c3)[C@H](O)[C@@H](O)[C@@H]2O)ccc1O | 20 | 17.8 | 45.5 | 35.33 µg/mL (≈ 50.9 µM) | Non-toxic | 27.9 | > 30 |  | 
COc1cc(/C=C/C(=O)O[C@H]2[C@H](OC(=O)/C=C/c3cc(OC)c(O)c(OC)c3)[C@@H](CO)O[C@@]2(CO)O[C@H]2O[C@H](COC(=O)/C=C/c3cc(OC)c(O)c(OC)c3)[C@@H](O)[C@H](O)[C@H]2O)ccc1O | 23.8 | 18.9 | 34.8 | 23.05 µg/mL (≈ 24.8 µM) | Non-toxic | 16.7 | 26.9 |  | 
COc1cc(/C=C/C(=O)OC[C@H]2O[C@H](O[C@]3(CO)O[C@H](CO)[C@@H](O)[C@@H]3OC(=O)/C=C/c3cc(OC)c(O)c(OC)c3)[C@H](O)[C@@H](O)[C@@H]2O)cc(OC)c1O | 16.7 | 17.2 | 37.1 | 29.63 µg/mL (≈ 39.3 µM) | Non-toxic | 14.2 | 21.1 |  | 
OC[C@H]1O[C@@H](OC/C=C/c2ccc(O)cc2)[C@H](O)[C@@H](O)[C@@H]1O |  |  |  |  |  |  |  | 50 | 
OC[C@H]1O[C@@](CO)(O[C@H]2O[C@H](CO)[C@@H](O)[C@H](O)[C@H]2O)[C@@H](O)[C@@H]1O [SUCROSE] | > 30 | > 30 | > 200 | Not Active | Non-toxic | > 30 | > 30 |  | 
COc1cc(/C=C/C(=O)O[C@H]2[C@H](O)[C@@H](CO)O[C@@]2(CO)O[C@H]2O[C@H](CO)[C@@H](O)[C@H](O)[C@H]2O)cc(OC)c1O | 20.5 | 27 | 37.4 | 78.2 µg/mL (≈ 143 µM) |  | 23.9 | 23.9 |  | 15
COc1cc(/C=C/C(=O)OC[C@H]2O[C@H](O[C@]3(CO)O[C@H](CO)[C@@H](OC(=O)/C=C/c4cc(OC)c(O)c(OC)c4)[C@@H]3OC(=O)/C=C/c3cc(OC)c(O)c(OC)c3)[C@H](O)[C@@H](O)[C@@H]2O)cc(OC)c1O | 19.2 | 14.1 | 48.9 | 27.1 µg/mL (≈ 28.2 µM) | Non-toxic | 18.6 | 25.9 |  | 
COc1cc(/C=C/C(=O)OC[C@H]2O[C@H](O[C@]3(CO)O[C@H](CO)[C@@H](O)[C@@H]3OC(=O)/C=C/c3cc(OC)c(OC)c(OC)c3)[C@H](O)[C@@H](O)[C@@H]2O)cc(OC)c1O | 24.6 | 18.3 | 27 | 54.98 µg/mL (≈ 71.5 µM) | Non-toxic | 21.6 | 26 |  | 
O=C1O[C@H]([C@@H](O)CO)C(O)=C1O [ASCORBIC ACID] |  |  |  | 7.63 µg/mL (≈ 43.3 µM) |  |  |  |  | 
COc1cc(/C=C/CO[C@@H]2O[C@H](CO)[C@@H](O)[C@H](O)[C@H]2O)ccc1O |  |  |  |  |  |  |  | 50 | 
COc1cc(/C=C/C(=O)OC[C@H]2O[C@@](CO)(O[C@H]3O[C@H](COC(=O)/C=C/c4cc(OC)c(O)c(OC)c4)[C@@H](O)[C@H](O)[C@H]3O)[C@@H](OC(=O)/C=C/c3cc(OC)c(O)c(OC)c3)[C@@H]2O)cc(OC)c1O | 6.71 | 12.4 | 21.6 | 44.59 µg/mL (≈ 46.4 µM) | Non-toxic | 9.5 | 20.8 |  | 
COc1cccc2c1C(=O)c1c(O)c3c(c(O)c1C2=O)C[C@@](O)(C(=O)CO)C[C@@H]3O[C@H]1C[C@H](N)[C@H](O)[C@H](C)O1 [DOXORUBICIN] | 0.012 |  |  |  |  | 0.001 |  |  | 

Reference: ChEMBL document CHEMBL3580620, “Anti-inflammatory and antitumor phenylpropanoid sucrosides from the seeds of Raphanus sativus” (Bioorg Med Chem Lett, 2014)
